Reference: patent US6864262B2, “1-(2-m-methanesulfonamidophenylethyl)-4-(m-trifluoromethylphenyl) piperazine and pharmaceutically acceptable salts and solvents thereof” (Eli Lilly and Company, priority 2000, dated 2005)
pKi: −log10 of the molar value.

Columns and labels:
5-HT1D [1] = molecular target: T1, 5-HT1D (Homo sapiens, UniProt P28221); test: Binding affinity at cloned human serotonin receptors
T1 construct: expressed in transfected cells

5-HT1B [2] = molecular target: T2, 5-HT1B (Homo sapiens, UniProt P28222); test: as above
T2 construct: expressed in transfected cells

5-HT1A [3] = molecular target: T3, 5-HT1A (Homo sapiens, UniProt P08908); test: as above
T3 construct: expressed in transfected cells
T3 sequence (P08908 1-422): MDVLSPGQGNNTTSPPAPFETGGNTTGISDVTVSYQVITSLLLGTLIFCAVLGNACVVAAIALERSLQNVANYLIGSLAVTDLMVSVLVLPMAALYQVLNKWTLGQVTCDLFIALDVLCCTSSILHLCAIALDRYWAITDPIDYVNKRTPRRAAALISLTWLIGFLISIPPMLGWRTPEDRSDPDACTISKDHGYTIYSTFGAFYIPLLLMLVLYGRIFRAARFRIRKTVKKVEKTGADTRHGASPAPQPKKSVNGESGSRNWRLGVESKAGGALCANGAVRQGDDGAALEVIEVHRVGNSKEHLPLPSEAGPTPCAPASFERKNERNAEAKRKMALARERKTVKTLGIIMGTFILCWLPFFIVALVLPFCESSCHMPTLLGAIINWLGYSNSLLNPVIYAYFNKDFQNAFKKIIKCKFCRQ

5-HT1F [4] = molecular target: T4, 5-HT1F (Homo sapiens, UniProt P30939); test: as above
T4 construct: expressed in transfected cells
T4 sequence (P30939 1-366): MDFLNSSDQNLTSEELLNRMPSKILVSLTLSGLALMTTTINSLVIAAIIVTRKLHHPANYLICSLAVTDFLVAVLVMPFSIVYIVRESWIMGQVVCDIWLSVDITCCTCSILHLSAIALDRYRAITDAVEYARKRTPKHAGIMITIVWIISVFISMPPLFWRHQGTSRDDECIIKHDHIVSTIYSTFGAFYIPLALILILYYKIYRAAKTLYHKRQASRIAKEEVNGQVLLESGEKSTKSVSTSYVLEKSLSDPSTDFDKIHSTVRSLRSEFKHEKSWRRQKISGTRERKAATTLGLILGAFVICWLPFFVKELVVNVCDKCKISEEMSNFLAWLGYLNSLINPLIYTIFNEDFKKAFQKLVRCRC

5-HT7 = molecular target: T5, 5-HT7 (Homo sapiens, UniProt P34969); test: as above
T5 construct: expressed in transfected cells

5-HT1E = molecular target: T6, 5-HT1E (Homo sapiens, UniProt P28566); test: as above
T6 construct: expressed in transfected cells

Adult female cats = test: Transvesical cystometrograms and periurethral EMG in anesthetized cats, acetic acid infusion
Description: Adult female cats were anesthetized with alpha chloralose (50-75 mg/kg i.v.) One catheter was inserted into the carotid artery for measuring systemic blood pressure and heart rate. A second catheter was inserted in the radial vein for administering drugs. Following a midline laparotomy, the bladder was cannulated through the dome to allow infusion of fluids and recording of intravesical pressure. The urethra remained patent to allow expulsion of fluids during reflex micturition.
Transvesical cystometrograms (CMGs) were recorded by emptying the bladder, beginning infusion (0.5 ml/min) with saline, and noting the volume at which fluid release and bladder contraction occurred (i.e. micturition). This volume is defined as bladder capacity. EMG activity was recorded from the periurethral musculature with bipolar hook electrodes placed within 0.5 cm of the urethral meatus via an intravaginal approach. After establishing bladder capacity and EMG activity under conditions of saline infusion, the infusion cannula was switched to infuse 0.5% acetic acid solution and cystometry repeated.
Following cystometry, the bladder was allowed to continuously fill, which produced rhythmic bladder contractions accompanied by fluid release. During this time of rhythmic bladder activity, vehicle or drug was administered. Within 5 minutes, the bladder was emptied; another CMG was performed, and bladder capacity and EMG activity were again measured. The bladder was then continuously filled to produce rhythmic contractions with fluid release, and the frequency of these rhythmic contractions was measured over a fifteen minute period to record drug effects on contraction frequency. This procedure was repeated with increasing doses of drug to produce a cumulative dose response curve.
All other drugs were dissolved in saline.

5-HT1F [5] = molecular target: T4, 5-HT1F; test: Functional data in cloned human serotonin receptors; type: biochemical
5-HT1A [6] = molecular target: T3, 5-HT1A; test: as above; type: biochemical
5-HT1D [7] = molecular target: T1, 5-HT1D; test: as above; type: biochemical
5-HT1B [8] = molecular target: T2, 5-HT1B; test: as above; type: biochemical
[9] = anesthetized cat, i.v., cumulative doses, acetic acid infusion
[10] = vs 1-(2-p-methanesulfonamidophenylethyl)-4-(m-trifluoromethylphenyl)piperazine
[11] = listed as compound of formula I

T2 sequence (P28222 whole entry): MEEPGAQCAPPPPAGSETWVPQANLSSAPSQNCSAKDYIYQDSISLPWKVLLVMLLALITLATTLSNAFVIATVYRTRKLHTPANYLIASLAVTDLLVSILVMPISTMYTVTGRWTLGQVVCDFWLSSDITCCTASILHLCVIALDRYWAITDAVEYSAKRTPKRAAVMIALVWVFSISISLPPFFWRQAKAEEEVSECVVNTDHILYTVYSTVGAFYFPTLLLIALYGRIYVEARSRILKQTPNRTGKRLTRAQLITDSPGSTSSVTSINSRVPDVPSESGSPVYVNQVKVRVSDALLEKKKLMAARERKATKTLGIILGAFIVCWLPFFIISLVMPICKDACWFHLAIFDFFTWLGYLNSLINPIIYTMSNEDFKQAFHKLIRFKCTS
T1 sequence (P28221 whole entry): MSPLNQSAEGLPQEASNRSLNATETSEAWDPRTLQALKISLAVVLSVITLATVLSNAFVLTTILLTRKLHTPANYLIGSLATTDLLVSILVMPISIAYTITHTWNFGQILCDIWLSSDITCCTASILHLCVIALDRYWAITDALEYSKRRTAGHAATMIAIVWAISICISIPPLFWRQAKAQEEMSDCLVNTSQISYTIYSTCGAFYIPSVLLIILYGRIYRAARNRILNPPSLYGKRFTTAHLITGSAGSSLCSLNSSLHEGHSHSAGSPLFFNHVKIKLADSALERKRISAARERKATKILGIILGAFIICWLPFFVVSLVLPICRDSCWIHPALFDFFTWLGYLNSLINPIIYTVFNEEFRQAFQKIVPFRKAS
T6 sequence (P28566 whole entry): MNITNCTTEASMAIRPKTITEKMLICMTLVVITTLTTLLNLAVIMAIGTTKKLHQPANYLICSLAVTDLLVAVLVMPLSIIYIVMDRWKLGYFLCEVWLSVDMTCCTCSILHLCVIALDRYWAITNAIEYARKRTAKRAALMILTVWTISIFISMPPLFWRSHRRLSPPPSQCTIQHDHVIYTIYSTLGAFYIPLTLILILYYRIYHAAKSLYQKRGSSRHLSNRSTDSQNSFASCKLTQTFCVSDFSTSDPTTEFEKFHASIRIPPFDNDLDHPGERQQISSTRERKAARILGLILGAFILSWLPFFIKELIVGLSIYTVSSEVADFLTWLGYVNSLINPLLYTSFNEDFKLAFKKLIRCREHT
T5 sequence (P34969 whole entry): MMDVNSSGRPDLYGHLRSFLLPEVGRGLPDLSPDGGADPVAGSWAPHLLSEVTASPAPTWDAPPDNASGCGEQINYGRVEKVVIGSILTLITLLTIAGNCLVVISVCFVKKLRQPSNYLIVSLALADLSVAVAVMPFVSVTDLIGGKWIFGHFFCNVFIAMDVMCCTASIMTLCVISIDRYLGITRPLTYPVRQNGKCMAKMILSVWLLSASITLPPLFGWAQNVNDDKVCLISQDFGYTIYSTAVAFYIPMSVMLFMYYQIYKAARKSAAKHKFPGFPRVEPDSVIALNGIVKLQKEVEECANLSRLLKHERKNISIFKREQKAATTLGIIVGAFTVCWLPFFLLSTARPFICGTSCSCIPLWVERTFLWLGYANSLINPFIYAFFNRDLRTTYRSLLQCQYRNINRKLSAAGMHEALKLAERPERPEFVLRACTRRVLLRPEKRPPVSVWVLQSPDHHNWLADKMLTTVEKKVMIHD

CS(=O)(=O)Nc1cccc(CCN2CCN(c3cccc(C(F)(F)F)c3)CC2)c1.O=C(O)C(=O)O
melting point: 164 °C

CS(=O)(=O)Nc1cccc(CCN2CCN(c3cccc(C(F)(F)F)c3)CC2)c1.Cl
melting point: 198 to 199 °C

CS(=O)(=O)Nc1ccc(CCN2CCN(c3cccc(C(F)(F)F)c3)CC2)cc1 [1-(2-p-methanesulfonamidophenylethyl)-4-(m-trifluoromethylphenyl)piperazine, reference compound]
pKi (5-HT1D [1]): 7.26
pKi (5-HT1B [2]): 8.02
pKi (5-HT1A [3]): 8.46
% displacement, 5-HT1F (5-HT1F [4]; @ 1000 nM): 14% @ 1000
pKi (5-HT7): 7.35
% displacement, 5-HT1E (5-HT1E; @ 1000 nM): 5% @ 1000

COc1ccc(CNC(=O)/C=C/c2ccc3[nH]cc(CCN(C)C)c3c2)cc1 [GR46611, reference compound]
bladder capacity (Adult female cats; [9]): dose-dependent increases
external urethral sphincter (EUS) EMG activity (Adult female cats; [9]): increase
frequency of micturition contractions (Adult female cats; [9]): reduced

COc1ccc(NC(=O)c2ccc(-c3ccc(-c4noc(C)n4)cc3C)cc2)cc1N1CCN(C)CC1 [GR127935, reference compound]
bladder capacity (Adult female cats; [9]): dose-dependent increases
external urethral sphincter (EUS) EMG activity (Adult female cats; [9]): increase
frequency of micturition contractions (Adult female cats; [9]): reduced

CS(=O)(=O)Nc1cccc(CCN2CCN(c3cccc(C(F)(F)F)c3)CC2)c1 [LY217101, 1-(2-m-methanesulfonamidophenylethyl)-4-(m-trifluoromethylphenyl)piperazine]
Emax (5-HT1F [5]): 95.5%
EMG activity (Adult female cats; LY217101 given after WAY100635): no longer produces
bladder capacity (Adult female cats; LY217101 given after WAY100635): increase
bradycardia (Adult female cats; LY217101 given after WAY100635): no longer produces
frequency of micturition contractions (Adult female cats; LY217101 given after WAY100635): continued to reduce
hypotension (Adult female cats; LY217101 given after WAY100635): no longer produces
bradycardia (Adult female cats; anesthetized cat, i.v.): induced
hypotension (Adult female cats; anesthetized cat, i.v.): induced
bladder capacity (Adult female cats; [9]): dose-dependent increases
external urethral sphincter (EUS) EMG activity (Adult female cats; [9]): increase
frequency of micturition contractions (Adult female cats; [9]): reduced
pKi (5-HT1D [1]): 8.92
fold higher affinity for the 5-HT1D receptor than the p-regioisomer (5-HT1D [1]; [10]): 45 fold
pKi (5-HT1B [2]): 8.77
fold higher affinity for the 5-HT1B receptor than the p-regioisomer (5-HT1B [2]; [10]): 56 fold
pKi (5-HT1A [3]): 9.02
functional character at 5-HT1A (5-HT1A [6]; listed as Formula 1): Agonist
functional character at 5-HT1A (5-HT1A [6]; [11]): agonist
pKi (5-HT1F [4]): 7.49
Emax (5-HT1D [7]): 93.4%
functional character at 5-HT1D (5-HT1D [7]; listed as Formula 1): Agonist
functional character at 5-HT1D (5-HT1D [7]; [11]): agonist
pKi (5-HT7): 6.98
pKi (5-HT1E): 5.41
Emax (5-HT1B [8]): 88.2%
functional character at 5-HT1B (5-HT1B [8]; listed as Formula 1): Agonist
functional character at 5-HT1B (5-HT1B [8]; [11]): agonist

COc1ccccc1N1CCN(CCN(C(=O)C2CCCCC2)c2ccccn2)CC1 [WAY100635, reference compound]
reversal of hypotension, bradycardia, decrease in contraction frequency and increase in EMG activity induced by the compound of Formula I (Adult female cats; anesthetized cat, WAY100635 given after compound of Formula I): partially reversed

CN(C)CCc1c[nH]c2ccc(C[C@H]3COC(=O)N3)cc12 [zolmitriptan, reference compound]
bladder capacity (Adult female cats; [9]): dose-dependent increases
external urethral sphincter (EUS) EMG activity (Adult female cats; [9]): increase
frequency of micturition contractions (Adult female cats; [9]): reduced
